Measured values from ChEMBL document CHEMBL1201862, “PubChem BioAssay data set” (2004).
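Interpolation was linear, between the two tested concentrations surrounding the appropriate level; five concentrations were tested over 48 hours in 96-well plates. At the GI50, growth is halved.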 Calls of active or inactive are those of the source. Cut-off read from the data, not from the text of the source: active = GI50 up to about 1.1 µM and inactive = higher.

Key:
Assay in all cases: growth of human tumour cells (NCI), 48 h
[1] = system: A549
[2] = system: ACHN
[3] = system: CAKI-1
[4] = system: CCRF-CEM
[5] = system: COLO 205
[6] = system: DLD-1
[7] = system: DMS-114
[8] = system: DMS-273
[9] = system: EKVX
[10] = system: HCT-116
[11] = system: HCT-15
[12] = system: HL-60
[13] = system: HOP-18
[14] = system: HOP-62
[15] = system: HOP-92
[16] = system: HT-29
[17] = system: IGROV-1
[18] = system: K562
[19] = system: KM-20L2
[20] = system: LOX IMVI
[21] = system: M14
[22] = system: M19-MEL
[23] = system: MOLT-4
[24] = system: Malme-3M
[25] = system: NCI-H23
[26] = system: NCI-H460
[27] = system: OVCAR-3
[28] = system: OVCAR-4
[29] = system: OVCAR-8
[30] = system: RPMI-8226
[31] = system: RXF 393
[32] = system: RXF 631
[33] = system: SF-295
[34] = system: SF-539
[35] = system: SK-MEL-28
[36] = system: SK-MEL-5
[37] = system: SK-OV-3
[38] = system: SN12C
[39] = system: SNB-19
[40] = system: SNB-75
[41] = system: SNB-78
[42] = system: SW-620
[43] = system: TK-10
[44] = system: U-251
[45] = system: UACC-257
[46] = system: UACC-62
[47] = system: UO-31
[48] = system: XF498
[49] = system: HCC 2998
[50] = system: KM12
[51] = system: LXFL 529
[52] = system: NCI-H226
[53] = system: NCI-H522
[54] = system: OVCAR-5
[55] = system: SF-268
[56] = system: SK-MEL-2
[57] = system: SR
[58] = system: 786-0
[59] = system: A498

CC(=O)OCC1=C(C(=O)O)C(c2ccc3c(c2)OCO3)c2cc3c(cc2O1)OCO3 (stereo not given)
GI50 [1]: > 100 µM (inactive)
GI50 [2]: > 100 µM (inactive)
GI50 [3]: > 100 µM (inactive)
GI50 [4]: > 100 µM (inactive)
GI50 [5]: > 100 µM (inactive)
GI50 [6]: > 100 µM (inactive)
GI50 [7]: > 100 µM (inactive)
GI50 [8]: > 100 µM (inactive)
GI50 [9]: > 100 µM (inactive)
GI50 [10]: > 100 µM (inactive)
GI50 [11]: > 100 µM
GI50 [12]: > 100 µM (inactive)
GI50 [13]: > 100 µM (inactive)
GI50 [14]: > 100 µM (inactive)
GI50 [15]: 70.1 µM (inactive)
GI50 [16]: > 100 µM (inactive)
GI50 [17]: > 100 µM (inactive)
GI50 [18]: > 100 µM (inactive)
GI50 [19]: > 100 µM (inactive)
GI50 [20]: > 100 µM (inactive)
GI50 [21]: > 100 µM (inactive)
GI50 [22]: > 100 µM (inactive)
GI50 [23]: > 100 µM (inactive)
GI50 [24]: > 100 µM (inactive)
GI50 [25]: > 100 µM (inactive)
GI50 [26]: > 100 µM (inactive)
GI50 [27]: > 100 µM (inactive)
GI50 [28]: > 100 µM (inactive)
GI50 [29]: > 100 µM (inactive)
GI50 [30]: > 100 µM (inactive)
GI50 [31]: > 100 µM (inactive)
GI50 [32]: > 100 µM (inactive)
GI50 [33]: > 100 µM (inactive)
GI50 [34]: > 100 µM (inactive)
GI50 [35]: > 100 µM (inactive)
GI50 [36]: > 100 µM (inactive)
GI50 [37]: > 100 µM (inactive)
GI50 [38]: > 100 µM (inactive)
GI50 [39]: > 100 µM (inactive)
GI50 [40]: 53.8 µM (inactive)
GI50 [41]: > 100 µM (inactive)
GI50 [42]: > 100 µM (inactive)
GI50 [43]: > 100 µM (inactive)
GI50 [44]: > 100 µM (inactive)
GI50 [45]: > 100 µM (inactive)
GI50 [46]: > 100 µM (inactive)
GI50 [47]: > 100 µM (inactive)
GI50 [48]: > 100 µM (inactive)

O=c1c(C(c2ccc(Cl)cc2)c2c(O)c3ccccc3n(-c3ccccc3)c2=O)c(O)c2ccccc2n1-c1ccccc1
GI50 [1]: 15.2 µM (inactive)
GI50 [2]: 7.67 µM (inactive)
GI50 [3]: 28.2 µM (inactive)
GI50 [4]: 18.7 µM (inactive)
GI50 [5]: 30.8 µM (inactive)
GI50 [6]: 7.08 µM (inactive)
GI50 [7]: 28.7 µM (inactive)
GI50 [8]: 36.9 µM (inactive)
GI50 [9]: 17.2 µM (inactive)
GI50 [49]: 23.3 µM (inactive)
GI50 [10]: 24.8 µM (inactive)
GI50 [11]: 15.2 µM
GI50 [13]: > 100 µM (inactive)
GI50 [14]: 28 µM (inactive)
GI50 [15]: 16.7 µM (inactive)
GI50 [17]: > 100 µM (inactive)
GI50 [18]: 40.5 µM (inactive)
GI50 [19]: 37.6 µM (inactive)
GI50 [50]: 68.4 µM (inactive)
GI50 [20]: 18.8 µM (inactive)
GI50 [51]: 26.5 µM (inactive)
GI50 [22]: 48.1 µM (inactive)
GI50 [23]: 4.45 µM (inactive)
GI50 [24]: 21.9 µM (inactive)
GI50 [52]: 73.6 µM (inactive)
GI50 [25]: 11.1 µM (inactive)
GI50 [53]: 22.6 µM (inactive)
GI50 [27]: 29 µM (inactive)
GI50 [28]: 32.1 µM (inactive)
GI50 [54]: > 100 µM (inactive)
GI50 [29]: 29.4 µM (inactive)
GI50 [30]: 14.6 µM (inactive)
GI50 [31]: 36.6 µM (inactive)
GI50 [32]: 19.1 µM (inactive)
GI50 [55]: 16.9 µM (inactive)
GI50 [33]: 14.4 µM (inactive)
GI50 [34]: 19.1 µM (inactive)
GI50 [35]: > 100 µM (inactive)
GI50 [56]: 19.5 µM (inactive)
GI50 [36]: 28.7 µM (inactive)
GI50 [37]: 61.8 µM (inactive)
GI50 [38]: 19.1 µM (inactive)
GI50 [39]: 17.7 µM (inactive)
GI50 [41]: 48.8 µM (inactive)
GI50 [57]: 7.43 µM (inactive)
GI50 [42]: 34 µM (inactive)
GI50 [43]: 67.8 µM (inactive)
GI50 [44]: 16.9 µM (inactive)
GI50 [46]: 13.3 µM (inactive)
GI50 [47]: 22 µM (inactive)
GI50 [48]: 18.8 µM (inactive)

c1ccc2cc3[s+]snc3cc2c1
GI50 [58]: > 100 µM (inactive)
GI50 [59]: > 100 µM (inactive)
GI50 [1]: > 100 µM (inactive)
GI50 [2]: > 100 µM (inactive)
GI50 [3]: > 100 µM (inactive)
GI50 [4]: 89.7 µM (inactive)
GI50 [5]: > 100 µM (inactive)
GI50 [6]: > 100 µM (inactive)
GI50 [8]: > 100 µM (inactive)
GI50 [9]: > 100 µM (inactive)
GI50 [49]: > 100 µM (inactive)
GI50 [10]: > 100 µM (inactive)
GI50 [11]: > 100 µM
GI50 [12]: > 100 µM (inactive)
GI50 [13]: > 100 µM (inactive)
GI50 [14]: > 100 µM (inactive)
GI50 [16]: > 100 µM (inactive)
GI50 [17]: > 100 µM (inactive)
GI50 [18]: > 100 µM (inactive)
GI50 [19]: > 100 µM (inactive)
GI50 [50]: > 100 µM (inactive)
GI50 [20]: > 100 µM (inactive)
GI50 [51]: 85.1 µM (inactive)
GI50 [21]: > 100 µM (inactive)
GI50 [22]: > 100 µM (inactive)
GI50 [23]: > 100 µM (inactive)
GI50 [24]: > 100 µM (inactive)
GI50 [52]: > 100 µM (inactive)
GI50 [25]: > 100 µM (inactive)
GI50 [26]: > 100 µM (inactive)
GI50 [53]: > 100 µM (inactive)
GI50 [27]: > 100 µM (inactive)
GI50 [28]: > 100 µM (inactive)
GI50 [54]: > 100 µM (inactive)
GI50 [29]: > 100 µM (inactive)
GI50 [31]: > 100 µM (inactive)
GI50 [32]: > 100 µM (inactive)
GI50 [55]: > 100 µM (inactive)
GI50 [33]: > 100 µM (inactive)
GI50 [34]: > 100 µM (inactive)
GI50 [35]: > 100 µM (inactive)
GI50 [56]: > 100 µM (inactive)
GI50 [36]: 97.9 µM (inactive)
GI50 [37]: > 100 µM (inactive)
GI50 [38]: > 100 µM (inactive)
GI50 [39]: > 100 µM (inactive)
GI50 [40]: > 100 µM (inactive)
GI50 [41]: > 100 µM (inactive)
GI50 [57]: > 100 µM (inactive)
GI50 [42]: > 100 µM (inactive)
GI50 [43]: > 100 µM (inactive)
GI50 [44]: 85.9 µM (inactive)
GI50 [45]: > 100 µM (inactive)
GI50 [46]: > 100 µM (inactive)
GI50 [47]: > 100 µM (inactive)
GI50 [48]: > 100 µM (inactive)
